Experimental data from patent US20080139564A1, “SUBSTITUTED PHENYL PROPYL AMINES AS HISTAMINE H3 RECEPTOR AND SEROTONIN TRANSPORTER MODULATORS” (priority 2006, published 2008).
Like-named read-outs stand apart in the source and are kept apart here.

How the values were obtained:
human H3 receptor [1] = biological target: T1, human H3 receptor (Homo sapiens, UniProt Q9Y5N1); assay: H3 receptor binding (N-[3H]-α-methylhistamine displacement, SK-N-MC cell membranes); conditions: 0.8 nM N-[3H]-α-methylhistamine, 60 min at 25° C.
T1 construct: expressed in transfected cells
In short: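 Membranes from SK-N-MC cells stably expressing cloned human H3 receptor, in 50 mM Tris/5 mM EDTA pH 7.4, incubated with 0.8 nM N-[³H]-α-methylhistamine ± compound for 60 min at 25° C., then filtered. Nonspecific binding defined with 10 μM histamine.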

Rat SERT = biological target: T2, Rat SERT (Rattus norvegicus, UniProt P31652); assay: Rat brain SERT binding ([3H]-Citalopram displacement, rat brain membranes); conditions: 0.6 nM [3H]-Citalopram, 60 min at 25° C.
T2 construct: A rat brain without cerebellum (Zivic Laboratories, Inc.—Pittsburgh, Pa.) was homogenized; tissue Zivic Laboratories, Inc; host or cells: rat brain without cerebellum
In short: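 Membranes prepared from rat brain minus cerebellum in Tris pH 8/NaCl/KCl were incubated with 0.6 nM [3H]-citalopram and test compound for 60 min at 25° C. Bound ligand was separated by filtration. Nonspecific binding defined with 100 μM fluoxetine.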

human H3 receptor [2] = biological target: T1, human H3 receptor; assay: Cyclic AMP accumulation (β-galactosidase reporter in SK-N-MC cells); type: cell-based
Description: Sublines of SK-N-MC cells were created that expressed a reporter construct and the human H3 receptor. The reporter gene (β-galactosidase) is under the control of multiple cyclic AMP responsive elements. In 96-well plates, histamine was added directly to the cell media followed 5 min later by an addition of forskolin (5 μM final concentration). When appropriate, antagonists were added 10 min prior to agonist addition. After a 6-h incubation at 37° C., the media was aspirated and the cells washed with 200 μL of phosphate-buffered saline followed by a second aspiration. Cells were lysed with 25 μL 0.1× assay buffer (10 mM Na-phosphate, pH 8, 0.2 mM MgSO4, 0.01 mM MnCl2) and incubated at rt for 10 min. Cells were then incubated for 10 min with 100 μL of 1× assay buffer containing 0.5% Triton and 40 mM β-mercaptoethanol. Color was developed using 25 μL of 1 mg/mL substrate solution (chlorophenolred β-D galactopyranoside; Roche Molecular Biochemicals, Indianapolis, Ind.). Color was quantitated on a microplate reader at absorbance 570 nm. The pA2 values were calculated by Schild regression analysis of the pEC50 values.

human SERT = biological target: T3, human SERT (Homo sapiens, UniProt P31645); assay: Human SERT binding (3H-citalopram displacement, HEK293 membranes); conditions: 3H-citalopram 3.1 nM, rt for 1 h
T3 construct: expressed in transfected cells; host or cells: HEK293
In short: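 HEK293 membranes expressing human SERT incubated with ^3H-citalopram (3.1 nM) for 1 h at rt in 50 mM Tris, 120 mM NaCl, 5 mM KCl, pH 7.4. Nonspecific binding defined with 10 μM fluoxetine. Ki derived from bound radioactivity using the ^3H-citalopram Kd.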

[3] = Schild regression analysis of the pEC50 values, histamine agonist, forskolin 5 μM, SK-N-MC reporter cells, read-out: pA2 (converted)

T1 sequence (Q9Y5N1 whole entry): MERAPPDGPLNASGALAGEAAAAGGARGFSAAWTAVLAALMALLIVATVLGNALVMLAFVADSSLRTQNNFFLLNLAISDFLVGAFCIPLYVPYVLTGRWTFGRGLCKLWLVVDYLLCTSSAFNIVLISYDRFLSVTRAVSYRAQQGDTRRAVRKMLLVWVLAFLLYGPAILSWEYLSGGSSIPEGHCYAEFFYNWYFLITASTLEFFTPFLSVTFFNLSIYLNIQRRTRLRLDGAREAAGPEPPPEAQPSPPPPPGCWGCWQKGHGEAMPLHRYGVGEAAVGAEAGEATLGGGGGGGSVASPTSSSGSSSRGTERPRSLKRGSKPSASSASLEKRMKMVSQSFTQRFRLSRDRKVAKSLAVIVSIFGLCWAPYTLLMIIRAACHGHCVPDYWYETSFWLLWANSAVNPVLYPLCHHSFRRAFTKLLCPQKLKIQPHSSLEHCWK
T2 sequence (P31652 whole entry): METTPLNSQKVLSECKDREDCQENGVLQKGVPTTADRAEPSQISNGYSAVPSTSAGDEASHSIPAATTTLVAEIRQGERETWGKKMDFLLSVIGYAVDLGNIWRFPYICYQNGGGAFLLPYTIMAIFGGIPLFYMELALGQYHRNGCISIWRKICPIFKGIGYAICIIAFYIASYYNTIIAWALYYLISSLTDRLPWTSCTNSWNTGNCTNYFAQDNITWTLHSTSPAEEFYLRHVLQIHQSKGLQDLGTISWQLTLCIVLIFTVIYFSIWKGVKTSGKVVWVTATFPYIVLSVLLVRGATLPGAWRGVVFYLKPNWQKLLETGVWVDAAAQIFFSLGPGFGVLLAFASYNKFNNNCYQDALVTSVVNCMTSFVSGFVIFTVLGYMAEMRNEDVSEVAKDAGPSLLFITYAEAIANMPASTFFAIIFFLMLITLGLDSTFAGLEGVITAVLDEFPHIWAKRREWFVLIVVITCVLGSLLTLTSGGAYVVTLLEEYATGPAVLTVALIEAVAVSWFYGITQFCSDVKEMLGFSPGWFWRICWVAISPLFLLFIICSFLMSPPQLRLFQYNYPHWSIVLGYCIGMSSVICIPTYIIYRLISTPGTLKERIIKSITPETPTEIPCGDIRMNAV
T3 sequence (P31645 whole entry): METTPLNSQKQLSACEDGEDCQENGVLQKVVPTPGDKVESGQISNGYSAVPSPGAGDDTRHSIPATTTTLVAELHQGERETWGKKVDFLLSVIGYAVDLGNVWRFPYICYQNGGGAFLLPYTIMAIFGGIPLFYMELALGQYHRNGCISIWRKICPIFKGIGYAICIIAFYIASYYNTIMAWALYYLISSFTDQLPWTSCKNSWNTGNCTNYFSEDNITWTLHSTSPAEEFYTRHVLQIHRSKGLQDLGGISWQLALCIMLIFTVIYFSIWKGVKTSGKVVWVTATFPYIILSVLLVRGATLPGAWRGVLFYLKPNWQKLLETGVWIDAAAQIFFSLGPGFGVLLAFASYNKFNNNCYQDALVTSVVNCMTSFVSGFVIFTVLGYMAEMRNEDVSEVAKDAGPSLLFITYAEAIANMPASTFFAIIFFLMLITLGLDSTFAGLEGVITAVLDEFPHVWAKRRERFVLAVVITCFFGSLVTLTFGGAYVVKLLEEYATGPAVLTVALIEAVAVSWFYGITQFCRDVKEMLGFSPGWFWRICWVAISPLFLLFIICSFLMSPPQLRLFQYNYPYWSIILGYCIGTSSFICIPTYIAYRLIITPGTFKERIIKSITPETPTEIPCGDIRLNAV

Row | SMILES | Ki (human H3 receptor [1]) [nM] | Ki (Rat SERT) [nM] | Kb (human H3 receptor [2]; read-out: pA2 (converted)) [nM] | Ki (human SERT) [nM] | Kb (human H3 receptor [2]; [3]) [nM] | Kb (human H3 receptor [2]) [nM]
1 | COc1cccc(OC(CCN(C)C)c2ccc(OCCCN3CCCCC3)cc2)c1 (centres unmarked) [Example 13, {3-(3-Methoxy-phenoxy)-3-[4-(3-piperidin-1-yl-propoxy)-phenyl]-propyl}-dimethyl-amine] | 0.7 | 3 | 0.617 | 11 | – | –
2 | NCCC(Oc1ccc(C(F)(F)F)cc1)c1ccc(OCCCN2CCCCC2)cc1 (centres unmarked) [Example 69, 3-[4-(3-Piperidin-1-yl-propoxy)-phenyl]-3-(4-trifluoromethylphenoxy)-propylamine] | 8 | 5 | 7.94 | 1 | – | –
3 | CN(C)CCC(Oc1ccc(C(F)(F)F)cc1)c1ccc(OCCCN2CCCCC2)cc1 (centres unmarked) [Example 2, Dimethyl-[3-[4-(3-piperidin-1-yl-propoxy)-phenyl]-3-(4-trifluoromethyl-phenoxy)-propyl]-amine] | 2.5 | 17 | – | 14 | 2.95 | –
4 | CN(C)CCC(Oc1ccccc1)c1ccc(OCCCN2CCCCC2)cc1 (centres unmarked) [Example 1, Dimethyl-[3-phenoxy-3-[4-(3-piperidin-1-yl-propoxy)-phenyl]-propyl]-amine] | 0.7 | 1 | – | 26 | – | 0.468
5 | CC(C)N1CCN(Cc2ccc(C(CCN(C)C)Oc3ccc(Cl)c(Cl)c3)cc2)CC1 (centres unmarked) [Example 47, {3-(3,4-Dichloro-phenoxy)-3-[4-(4-isopropyl-piperazin-1-ylmethyl)phenyl]-propyl}-dimethyl-amine] | 5 | 6 | 11.5 | 6 | – | –
6 | CC(C)N1CCC(Oc2ccc(C(CCN(C)C)Oc3ccccc3)cc2)CC1 (centres unmarked) [Example 36, {3-[4-(1-Isopropyl-piperidin-4-yloxy)-phenyl]-3-phenoxy-propyl}-dimethyl-amine] | 0.8 | 36 | 6.92 | 169 | – | –
7 | CN(C)CCC(Oc1ccc(OCCCN2CCCCC2)cc1)c1ccc(C(F)(F)F)cc1 (centres unmarked) [Example 42, Dimethyl-[3-[4-(3-piperidin-1-yl-propoxy)-phenoxy]-3-(4-trifluoromethyl-phenyl)-propyl]-amine] | 2 | 9 | 3.89 | 180 | – | –
8 | CN(C)CCC(Oc1cccc(Br)c1)c1ccc(OCCCN2CCCCC2)cc1 (centres unmarked) [Example 15, {3-(3-Bromo-phenoxy)-3-[4-(3-piperidin-1-yl-propoxy)-phenyl]-propyl}-dimethyl-amine] | 1 | 2 | – | 4 | 1.58 | –
9 | CN(C)CCC(Oc1ccc(C#CCCN2CCCCC2)cc1)c1ccccc1 (centres unmarked) [Example 57, Dimethyl-{3-phenyl-3-[4-(4-piperidin-1-yl-but-1-ynyl)-phenoxy]-propyl}-amine] | 2 | 22 | 2.19 | 172 | – | –
10 | CC(C)N1CCN(C(=O)c2ccc(C(CCN(C)C)Oc3ccccc3)cc2)CC1 (centres unmarked) [Example 38, [4-(3-Dimethylamino-1-phenoxy-propyl)-phenyl]-(4-isopropylpiperazin-1-yl)-methanone] | 0.7 | 161 | 0.214 | 245 | – | –
11 | CC(C)N1CCN(C(=O)c2ccc(C(CCN(C)C)Oc3ccc(Cl)c(Cl)c3)cc2)CC1 (centres unmarked) [Example 40, {4-[1-(3,4-Dichloro-phenoxy)-3-dimethylamino-propyl]-phenyl}-(4-isopropyl-piperazin-1-yl)-methanone] | 2 | 18 | 2.19 | 7 | – | –
12 | CC(C)N1CCC(Oc2ccc(OC(CCN(C)C)c3ccccc3)cc2)CC1 (centres unmarked) [Example 44, {3-[4-(1-Isopropyl-piperidin-4-yloxy)-phenoxy]-3-phenyl-propyl}-dimethyl-amine] | 0.9 | 18 | 0.0977 | 90 | – | –
13 | CNCCC(Oc1ccc(C(F)(F)F)cc1)c1ccc(OCCCN2CCCCC2)cc1 (centres unmarked) [Example 70, Methyl-[3-[4-(3-piperidin-1-yl-propoxy)-phenyl]-3-(4-trifluoromethyl-phenoxy)-propyl]-amine] | 1 | 3 | – | 2 | – | 3.98

Continued by falling Ki (human H3 receptor [1]), values first:

Row | Ki (human H3 receptor [1]) [nM] | Ki (Rat SERT) [nM] | Kb (human H3 receptor [2]; read-out: pA2 (converted)) [nM] | Ki (human SERT) [nM] | Kb (human H3 receptor [2]; [3]) [nM] | SMILES | Kb (human H3 receptor [2]) [nM]
14 | 9 | 58 | – | 61 | 5.62 | CN(C)CCC(Oc1ccc(C(F)(F)F)cc1)c1ccc(C#CCCN2CCCCC2)cc1 (centres unmarked) [Example 20, Dimethyl-[3-[4-(4-piperidin-1-yl-but-1-ynyl)-phenyl]-3-(4-trifluoromethyl-phenoxy)-propyl]-amine] | –
15 | 6 | 7 | 4.79 | 10 | – | CN(C)CCC(Oc1ccccc1)c1ccc(CCCCN2CCCCC2)cc1 (centres unmarked) [Example 32, Dimethyl-{3-phenoxy-3-[4-(4-piperidin-1-yl-butyl)-phenyl]-propyl}-amine] | –
16 | 3 | 15 | 3.98 | 151 | – | CN(C)CCC(Nc1ccccc1)c1ccc(OCCCN2CCCCC2)cc1 (centres unmarked) [Example 66, N^3,N^3-Dimethyl-N^1-phenyl-1-[4-(3-piperidin-1-yl-propoxy)-phenyl]-propane-1,3-diamine] | –
17 | 2 | 3 | 10.5 | 0.8 | – | CNCCC(Oc1ccc(Cl)c(Cl)c1)c1ccc(OCCCN2CCCCC2)cc1 (centres unmarked) [Example 71, {3-(3,4-Dichloro-phenoxy)-3-[4-(3-piperidin-1-yl-propoxy)-phenyl]-propyl}-methyl-amine] | –
18 | 1.2 | 5 | 0.661 | 29 | – | CN(C)CCC(Oc1ccccc1)c1ccc(C#CCCN2CCCCC2)cc1 (centres unmarked) [Example 21, Dimethyl-{3-phenoxy-3-[4-(4-piperidin-1-yl-but-1-ynyl)-phenyl]-propyl}-amine] | –
19 | 1 | 23 | 1.7 | 163 | – | CN(C)CCC(Oc1ccc(OCCCN2CCCCC2)cc1)c1ccc(Cl)cc1 (centres unmarked) [Example 43, {3-(4-Chloro-phenyl)-3-[4-(3-piperidin-1-yl-propoxy)-phenoxy]-propyl}-dimethyl-amine] | –
20 | 1 | 14 | 0.977 | 133 | – | CC(C)N1CCN(Cc2ccc(C(CCN(C)C)Oc3ccccc3)cc2)CC1 (centres unmarked) [Example 56, {3-[4-(4-Isopropyl-piperazin-1-ylmethyl)-phenyl]-3-phenoxy-propyl}-dimethyl-amine] | –
21 | 0.8 | 1 | 0.251 | 14 | – | CN(C)CCC(Cc1ccccc1)c1ccc(OCCCN2CCCCC2)cc1 (centres unmarked) [Example 65, Dimethyl-{4-phenyl-3-[4-(3-piperidin-1-yl-propoxy)-phenyl]-butyl}-amine] | –
22 | 0.6 | 4 | 0.631 | 53 | – | CN(C)CCC(Sc1ccccc1)c1ccc(OCCCN2CCCCC2)cc1 (centres unmarked) [Example 67, Dimethyl-{3-phenylsulfanyl-3-[4-(3-piperidin-1-yl-propoxy)phenyl]-propyl}-amine] | –
23 | 0.3 | 9 | 0.0631 | 91 | – | CN(C)CCC(Oc1cccnc1)c1ccc(OCCCN2CCCCC2)cc1 (centres unmarked) [Example 18, Dimethyl-[3-[4-(3-piperidin-1-yl-propoxy)-phenyl]-3-(pyridin-3-yloxy)-propyl]-amine] | –
